The test relates to L. donovani-infected THP-1 macrophages, intracellular amastigote imaging. Put plainly: antileishmanial activity in infected THP-1 macrophages – imaging, THP-1 host macrophages, host toxicity (AID 1159564).
Where [1] appears, read: measured here: THP-1 host cell toxicity.
Setting [2] is: measured here: amastigotes per macrophage.

Activity calls are given as the source filed them. No rule for the calls is given here.

In PubChem BioAssay AID1159564 (GlaxoSmithKline (GSK), 2015) one finds IC50 data, which are given here for 38 molecules.

With `CN(C(=O)Nc1ccc2c(c1)CCN(C1CCC1)CC2)c1ccc(C#N)cc1`, the IC50 is > 50 µM (inactive). In addition, under setting [1], the IC50 is > 50 µM. Also, the IC50 under setting [2] is > 50 µM.

Regarding `Cc1nn2c(NCCCO)c3c(nc2c1-c1cccs1)CCC3`, the IC50 is > 50 µM (inactive). For the same molecule, the IC50 under setting [1] was > 50 µM. For the same molecule, the IC50 under setting [2] is > 50 µM.

Take `OC1CCC(Nc2nccc(-c3sc(C4CCOCC4)nc3-c3ccc(F)c(F)c3)n2)CC1` (stereo not drawn): the IC50 is 5 µM. The same molecule returned an IC50 under setting [1] of 20 µM. Further, the IC50 under setting [2] was found to be 2.5 µM.

With `CC(c1ccccn1)N(C)Cc1nc2ccccc2n1C(C)C` (stereo not drawn), the IC50 is 3.2 µM. The same molecule came in with an IC50 under setting [1] of 16 µM. The IC50 under setting [2] was 2 µM.

`COCc1cnc2c(c1SCc1c(F)cccc1Cl)c(=O)n(C)c(=O)n2C`: the IC50 is 5 µM. The IC50 under setting [1] was > 50 µM. Under setting [2], this molecule gave an IC50 of 5 µM.

As for `CCN(CC)S(=O)(=O)c1ccc(Cn2nc(C(=O)Nc3ccncn3)c3ccccc32)cc1`, the IC50 is > 50 µM (inactive). Also, the IC50 under setting [1] was > 50 µM. Besides, the IC50 under setting [2] was > 50 µM.

Take `Cc1ccc2ccc(C(Nc3ccccn3)c3cccnc3)c(O)c2n1` (stereo not drawn): the IC50 is 13 µM. Moreover, the IC50 under setting [1] is > 50 µM. For the same molecule, the IC50 under setting [2] was 7.9 µM.

For the molecule `O=c1[nH]cnc2c([C@@H]3O[C@H](CO)[C@@H](O)[C@H]3O)[nH]nc12`, the IC50 is 2 µM. Besides, the IC50 under setting [1] was > 50 µM. The same molecule gave an IC50 under setting [2] of 0.4 µM.

In the case of `COc1ncc(-c2ccc3nccc(-c4ccncc4)c3c2)cc1NS(=O)(=O)C1CC1`, the IC50 is 1.3 µM. Moreover, the IC50 under setting [1] is 1 µM. This molecule returned an IC50 under setting [2] of 0.32 µM.

For the molecule `COc1ccc2ncc(F)c(NC(=O)C3(O)CCC(NCc4ccc5c(c4)OCCO5)CC3)c2n1` (stereo not drawn), the IC50 was 32 µM. The same molecule had an IC50 under setting [1] of 20 µM. Moreover, the IC50 under setting [2] is 16 µM.

In the case of `Cc1ccccc1CNc1cc(C2CC2)nc(-c2nccn2C)n1`, the IC50 is 0.63 µM. The molecule further yielded an IC50 under setting [1] of 10 µM. The molecule also yielded an IC50 under setting [2] of 0.63 µM.

On to `Cc1nnnn1-c1cccc(C(=O)N2CCC[C@@]3(C)c4ncncc4CCC23)c1` (stereo partly drawn), for which the IC50 is > 50 µM (inactive). In addition, the IC50 under setting [1] was > 50 µM. For the same molecule, the IC50 under setting [2] was 6.3 µM.

Regarding `CC1(C)CCC(=Cc2ccc(Cl)cc2)CC1(O)Cn1ccnc1` (stereo not drawn), the IC50 is 7.9 µM. For the same molecule, the IC50 under setting [1] is 13 µM. The molecule also registered an IC50 under setting [2] of 2 µM.

As to `O=C(Nc1nc2ccccc2[nH]1)c1c(O)c2cccc3c2n(c1=O)CC3`, the IC50 was 2 µM. Also, the IC50 under setting [1] is > 50 µM. Further, the IC50 under setting [2] was 1 µM.

For the molecule `O=C(Nc1n[nH]c(-c2ccccn2)n1)C1CC1c1ccccc1` (stereo not drawn), the IC50 is 7.9 µM. Also, the half-maximal inhibitory concentration (IC50) under setting [1] is 20 µM. The molecule also yielded an IC50 under setting [2] of 7.9 µM.

On to `O=C(NC1C(=O)N(c2ccccc2)C1c1cccnc1)c1ccc(Cl)s1` (stereo not drawn), for which the IC50 was > 50 µM (inactive). Moreover, the IC50 under setting [1] was > 50 µM. The IC50 under setting [2] came to 0.79 µM.

On to `CCCCN(C(=O)c1ccc(NC(=O)C(C)C)cc1)c1ccccc1`, for which the IC50 was 5 µM. Under setting [1], the half-maximal inhibitory concentration (IC50) is > 50 µM. The IC50 under setting [2] was found to be 3.2 µM.

Consider `Cc1c(Nc2cc(C3CC3)[nH]n2)ccc(C#N)c1Cl`, for which the concentration for half-maximal inhibition (IC50) was 40 µM. Also, under setting [1], the IC50 is 25 µM. The same molecule showed an IC50 under setting [2] of 25 µM.

With `COc1ccc2ncc(=O)n(CCN3CCC(NCc4ccc(-c5cccs5)cc4)CC3)c2n1`, the IC50 was 3.2 µM. For the same molecule, the 50% inhibitory concentration (IC50) under setting [1] is 10 µM. Under setting [2], this molecule showed a half-inhibitory concentration (IC50) of 1.3 µM.

As for `O=c1ccn(-c2ccc([N+](=O)[O-])cc2Cl)c2ccc(F)cc12`, the IC50 was > 50 µM (inactive). Also, the IC50 under setting [1] was > 50 µM. Moreover, the IC50 under setting [2] was > 50 µM.

For `Cc1ccc(Nc2nc(-c3ccccn3)cc(N3CCCC(O)C3)n2)cc1` (stereo not drawn), the IC50 is 0.79 µM. The molecule further gave an IC50 under setting [1] of 25 µM. Moreover, under setting [2], the IC50 turned out to be 0.5 µM.

As for `CN1CCCN(C(=O)c2ccc(N3CCCC3)cc2Cl)CC1`, the IC50 is > 50 µM (inactive). For the same molecule, under setting [1], the IC50 is > 50 µM. The IC50 under setting [2] is > 50 µM.

On to `COc1ccccc1C(=O)Nc1nnc(-c2ccc3c(c2)OCO3)s1`, for which the IC50 is 1 µM. For the same molecule, the IC50 under setting [1] came to 16 µM. For the same molecule, the IC50 under setting [2] came out at 0.63 µM.

On to `Cc1nc(-c2nc(NCc3ccc(Cl)cc3)c3cccnc3c2O)n[nH]1`, for which the IC50 is 0.5 µM. Besides, the IC50 under setting [1] worked out at 6.3 µM. Besides, the IC50 under setting [2] was 0.5 µM.

As to `NS(=O)(=O)c1ccc(Nc2ncc3cccc(OC4CCNCC4)c3n2)cc1`, the IC50 is 20 µM. The IC50 under setting [1] worked out at 1 µM. The molecule further had an IC50 under setting [2] of 16 µM.

On to `CCC(CC)C(=O)Nc1cccc(C(=O)Nc2nnc(C3CCCCC3)s2)c1`, for which the IC50 is > 50 µM (inactive). The IC50 under setting [1] is > 50 µM. Moreover, the 50% inhibitory concentration (IC50) under setting [2] is > 50 µM.

Consider `COc1cccc(C(=O)[C@H]2C[C@@H]2CN(Cc2ccccn2)Cc2ccccn2)c1`, for which the IC50 is 2 µM. The IC50 under setting [1] was > 50 µM. Under setting [2], this molecule showed an IC50 of 1.6 µM.

Consider `Cc1nc(N2CC(C)OC(C)C2)sc1C(=O)Nc1ccc2c(c1)OCO2` (stereo not drawn), for which the IC50 was 7.9 µM. The IC50 under setting [1] is > 50 µM. The same molecule came in with an IC50 under setting [2] of 3.2 µM.

Consider `O=C(NCCc1nc(-c2ccc(F)c(F)c2)n[nH]1)C1CCCCC1`, for which the IC50 was > 50 µM (inactive). The 50% inhibitory concentration (IC50) under setting [1] stood at 20 µM. Besides, the IC50 under setting [2] was 16 µM.

`COc1ccc(C(C)N(C)c2ncc3c(N)nc(N)nc3n2)cc1F` (stereo not drawn): the IC50 was 16 µM. Also, the IC50 under setting [1] was > 50 µM. This molecule also yielded an IC50 under setting [2] of 13 µM.

As to `COc1cc(F)c2ncc(F)c(CCN3CC[C@H](NCc4cc5c(cn4)OCS5)[C@@H](O)C3)c2c1`, the IC50 is 16 µM. This molecule also came in with an IC50 under setting [1] of 16 µM. Under setting [2], this molecule displayed an IC50 of 13 µM.

Regarding `Cc1cc(NC(=O)C2CCCCC2)n(-c2nc3c(c(=O)[nH]2)CCC3)n1`, the half-maximal inhibitory concentration (IC50) was 5 µM. Besides, the concentration for half-maximal inhibition (IC50) under setting [1] is 10 µM. Moreover, under setting [2], the IC50 is 3.2 µM.

For `Cc1cc(N(C)C)nc(Nc2ccccc2C)n1`, the IC50 was 32 µM. Also, the IC50 under setting [1] was 40 µM. The same molecule showed an IC50 under setting [2] of 16 µM.

As to `CC(=O)NCCNc1cc(-c2ccnc(Nc3cccc(Cl)c3)n2)ccn1`, the IC50 was 0.25 µM. For the same molecule, the IC50 under setting [1] is 0.1 µM. The IC50 under setting [2] was 0.1 µM.

Regarding `CCC(c1ccc(F)cc1)n1cncc1-c1cnn(C)c1` (stereo not drawn), the IC50 was > 50 µM (inactive). For the same molecule, the IC50 under setting [1] is > 50 µM. Further, under setting [2], the IC50 was > 50 µM.

In the case of `Cn1c(CC(=O)NNC(=O)c2ccc3ccccc3n2)nc2ccccc21`, the half-inhibitory concentration (IC50) was 1.3 µM. For the same molecule, the IC50 under setting [1] was > 50 µM. Further, the IC50 under setting [2] was 0.79 µM.

As for `Fc1ccccc1N1C[C@H]2CCN(c3cccnc3)C[C@H]2C1`, the IC50 is > 50 µM (inactive). Besides, the IC50 under setting [1] was > 50 µM.

In the case of `CN(Cc1ccc(F)cc1)c1ccc(OCC(=O)N2CCCCC2c2cccnc2)nn1` (stereo not drawn), the IC50 was > 50 µM (inactive). Under setting [1], this molecule showed an IC50 of 32 µM. Moreover, the IC50 under setting [2] is > 50 µM.
